From patent US20250228239A1, “MOLECULES HAVING PESTICIDAL UTILITY, AND INTERMEDIATES, COMPOSITIONS, AND PROCESSES, RELATED THERETO” (priority 2024, published 2025)
Like-named read-outs stand apart in the source and are kept apart here.

Tests used:
[1] = tested on: Beet Armyworm (Spodoptera exigua, LAPHEG); assay: Bioassays on Beet Armyworm (BAW), 128-well diet tray assay; type: in vivo; conditions: Spodoptera exigua
Method in brief: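 Larvae at second instar are exposed on dried, compound-treated diet (50 μg/cm^2, delivered in 90:10 acetone-water) in eight replicate wells. After five to seven days at 25° C., 14:10 light-dark, percent mortality in each well is scored and the eight wells averaged.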

[2] = tested on: Cabbage Looper (Trichoplusia ni, TRIPNI); assay: Bioassays on Cabbage Looper (CL), 128-well diet tray assay; type: in vivo; conditions: Trichoplusia ni
Method in brief: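 Percent mortality, averaged across eight replicate wells, after second-instar larvae (1–5 per well) fed for five to seven days on diet dosed at 50 μg/cm^2. Compound was applied in acetone-water 90:10 and dried; trays kept vented at 25° C under 14:10 photoperiod.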

[3] = Beet Armyworm, rating class, read-out: BAW
[4] = Cabbage Looper, rating class, read-out: CL
[5] = Beet Armyworm, Table ABC / ABC-DP rating, read-out: BAW rating
[6] = Cabbage Looper, Table ABC / ABC-DP rating, read-out: CL rating
[7] = Table ABC: Biological Results, species BAW, read-out: BAW
[8] = Table ABC: Biological Results, species CL, read-out: CL

Row | SMILES | pest or weed control at 50 µg/cm2 [1, 3] | pest or weed control at 50 µg/cm2 [2, 4] | other results
1 | CCC(=O)Nc1c(F)ccc(NC(=O)c2cc(NC(=O)[C@H]3[C@H](c4ccc(F)c(Br)c4)C3(Cl)Cl)ccc2Cl)c1F [F1717, 5-((1R,3R)-3-(3-Bromo-4-fluorophenyl)-2,2-dichlorocyclopropane-1-carboxamido)-2-chloro-N-(2,4-difluoro-3-propionamidophenyl)benzamide] | 50 to 100% | 50 to 100% | –
2 | O=C(Nc1ccc(F)c(NC(=O)C2CCCS2)c1F)c1cc(NC(=O)[C@H]2[C@H](c3ccc(F)c(C(F)(F)F)c3)C2(Cl)Cl)ccc1Cl (stereo partly drawn) [F1721, N-(3-(2-Chloro-5-((1R,3R)-2,2-dichloro-3-(4-fluoro-3-(trifluoromethyl)phenyl)cyclopropane-1-carboxamido)benzamido)-2,6-difluorophenyl)tetrahydrothiophene-2-carboxamide] | 50 to 100% | 50 to 100% | –
3 | Nc1c(F)ccc(NC(=O)c2c(Cl)ccc(NC(=O)[C@H]3[C@H](c4ccc(F)c(Cl)c4)C3(Cl)Cl)c2F)c1F [F1508, N-(3-Amino-2,4-difluorophenyl)-6-chloro-3-((1R,3R)-2,2-dichloro-3-(3-chloro-4-fluorophenyl)cyclopropane-1-carboxamido)-2-fluorobenzamide] | 50 to 100% | 50 to 100% | –
4 | O=C(CCl)Nc1c(F)ccc(NC(=O)c2cc(NC(=O)[C@H]3[C@H](c4ccc(F)c(C(F)(F)F)c4)C3(Cl)Cl)ccc2Cl)c1F [F1726, 2-Chloro-N-(3-(2-chloroacetamido)-2,4-difluorophenyl)-5-((1R,3R)-2,2-dichloro-3-(4-fluoro-3-(trifluoromethyl)phenyl)cyclopropane-1-carboxamido)benzamide] | 50 to 100% | 50 to 100% | –
5 | CC(C)(C)OC(=O)N(C(=O)OC(C)(C)C)c1c(F)ccc(NC(=O)c2cc(NC(=O)[C@H]3[C@H](c4cccc(C(F)(F)F)c4)C3(Cl)Cl)ccc2Cl)c1F [F1665, tert-Butyl N-tert-butoxycarbonyl-N-[3-[[2-chloro-5-[[(1R,3R)-2,2-dichloro-3-[3-(trifluoromethyl)phenyl]cyclopropanecarbonyl]amino]benzoyl]amino]-2,6-difluoro-phenyl]carbamate] | 50 to 100% | 50 to 100% | –
6 | COCC(=O)NNC(=O)c1cc(NC(=O)[C@H]2[C@H](c3cc(Cl)cc(Cl)c3)C2(Cl)Cl)ccc1Cl (relative stereo) [F2529, trans-2,2-Dichloro-N-(4-chloro-3-(2-(2-methoxyacetyl)hydrazine-1-carbonyl)phenyl)-3-(3,5-dichlorophenyl)cyclopropane-1-carboxamide] | – | – | pest or weed control at 50 µg/cm2 [1, 5]: 50 to 100%; pest or weed control at 50 µg/cm2 [2, 6]: 50 to 100%
7 | CCNC(=O)c1cc(NC(=O)[C@H]2[C@H](c3ccc(F)c(Cl)c3)C2(Cl)Cl)cc(F)c1F (relative stereo) [F2051, trans-5-(2,2-Dichloro-3-(3-chloro-4-fluorophenyl)cyclopropane-1-carboxamido)-N-ethyl-2,3-difluorobenzamide] | – | – | pest or weed control at 50 µg/cm2 [1, 5]: 50 to 100%; pest or weed control at 50 µg/cm2 [2, 6]: 50 to 100%
8 | O=C(Nc1c(F)cc(NC(=O)C(Cl)Cl)cc1F)c1cc(NC(=O)[C@H]2[C@H](c3ccc(Cl)c(Cl)c3)C2(Cl)Cl)ccc1Cl [F1272, 2-Chloro-5-((1R,3R)-2,2-dichloro-3-(3,4-dichlorophenyl)cyclopropane-1-carboxamido)-N-(4-(2,2-dichloroacetamido)-2,6-difluorophenyl)benzamide] | – | – | pest or weed control at 50 µg/cm2 [1, 7]: 50 to 100%; pest or weed control at 50 µg/cm2 [2, 8]: 50 to 100%
9 | O=C(Nc1ccc(F)c(NC(=O)C(F)F)c1F)c1cc(NC(=O)[C@H]2[C@H](c3cccc(S(F)(F)(F)(F)F)c3)C2(Cl)Cl)ccc1Cl (relative stereo) [F1293, trans-2-Chloro-5-(2,2-dichloro-3-(3-(pentafluoro-λ^6-sulfanyl)phenyl)cyclopropane-1-carboxamido)-N-(3-(2,2-difluoroacetamido)-2,4-difluorophenyl)benzamide] | – | – | pest or weed control at 50 µg/cm2 [1, 7]: 50 to 100%; pest or weed control at 50 µg/cm2 [2, 8]: 50 to 100%
